Data from US8536097B2, “4-(4-haloalkyl-3-thiobenzoyl)pyrazoles and use thereof as herbicides” (Bayer Cropscience AG, priority 2010, dated 2013).

Tests used:
Assay type in all cases: in vivo
Viola tricolor [1] = experiment: Post-emergence herbicidal action against weed plants; conditions: dose 320 g a.c./ha, scored after 3 to 4 weeks
Description: (§1) [table] 2. Post-Emergence Herbicidal Action Against Weed Plants Seeds of monocotyledonous and dicotyledonous weed plants are set out in cardboard pots in sandy loam soil, covered with soil, and cultivated under glass under good growth conditions. Two to three weeks after sowing, the trial plants are treated at the three-leaf stage. The compounds according to the invention, formulated as wettable powders or as emulsifiable concentrates, are sprayed onto the surface of the green parts of the plants, at a water application rate of 600 to 800 I/ha (converted). After the trial plants have stood for 3 to 4 weeks under optimum growth conditions under glass, the action of the compounds according to the invention is scored in comparison to compounds disclosed in the prior art.

Amaranthus retroflexus = experiment: as above; conditions: dose 320 g a.c./ha, scored after 3 to 4 weeks
Description: as §1

Viola tricolor [2] = experiment: Pre-emergence herbicidal action against weed plants; conditions: scored after 3 to 4 weeks
Source text: (§2) Seeds or rhizome sections of mono- and dicotyledonous weed plants are set out in pots of 9 to 13 cm in diameter, in sandy loam soil, and are covered with soil. The herbicides, formulated as emulsifiable concentrates or dusts, are applied to the surface of the covering earth in the form of aqueous dispersions or suspensions or emulsions, at a water application rate of 300 to 800 I/ha (converted) in different doses. The pots are then maintained under glass under optimum conditions for the further cultivation of the plants. After 3 to 4 weeks under optimum growth conditions under glass, the trial plants are scored for the effect of the compounds according to the invention in comparison to compounds disclosed in the prior art. […] [table]

Matricaria inodora = experiment: Post-emergence herbicidal action against weed plants; conditions: dose 80 g a.c./ha, scored after 3 to 4 weeks
Description: as §1

Cyperus serotinus = experiment: Pre-emergence herbicidal action against weed plants; conditions: scored after 3 to 4 weeks
Source text: as §2

Avena fatua = experiment: as above; conditions: dose 80 g a.c./ha, scored after 3 to 4 weeks
Source text: as §2

Setaria viridis = experiment: Post-emergence herbicidal action against weed plants; conditions: dose 80 g a.c./ha, scored after 3 to 4 weeks
Description: as §1

Alopecurus myosuroides = experiment: Pre-emergence herbicidal action against weed plants; conditions: dose 320 g a.c./ha, scored after 3 to 4 weeks
Source text: as §2

Cc1nn(C)c(O)c1C(=O)c1ccc(C(F)(F)F)c([S+](C)[O-])c1C (centres unmarked) [3-9, known from WO 2008/125214]
Herbicidal action against VIOTR (Viola tricolor [1]): 40%
Herbicidal action against AMARE (Amaranthus retroflexus): 50%
Herbicidal action against VIOTR (Viola tricolor [2]; dose 320 g a.c./ha): 40%

Cc1c(C(=O)c2cnn(C)c2O)ccc(C(F)(F)F)c1S(C)(=O)=O [1-4, known from WO 2008/125214]
Herbicidal action against MATIN (Matricaria inodora): 50%

Cc1c(C(=O)c2cnn(C)c2O)ccc(C(F)(F)F)c1[S+](C)[O-] (centres unmarked) [1-9, known from WO 2008/125214]
Herbicidal action against VIOTR (Viola tricolor [2]; dose 80 g a.c./ha): 60%
Herbicidal action against CYPES (Cyperus serotinus; dose 80 g a.c./ha): 50%
Herbicidal action against AVEFA (Avena fatua): 40%

Cc1c(C(=O)c2cnn(C)c2O)ccc(C(F)(F)C(F)(F)F)c1[S+](C)[O-] (centres unmarked) [1-153]
Herbicidal action against VIOTR (Viola tricolor [2]; dose 80 g a.c./ha): 90%
Herbicidal action against CYPES (Cyperus serotinus; dose 80 g a.c./ha): 100%
Herbicidal action against AVEFA (Avena fatua): 70%

Cc1nn(C)c(O)c1C(=O)c1ccc(C(F)(F)C(F)(F)F)c([S+](C)[O-])c1C (centres unmarked) [3-153]
Herbicidal action against VIOTR (Viola tricolor [1]): 80%
Herbicidal action against AMARE (Amaranthus retroflexus): 80%
Herbicidal action against VIOTR (Viola tricolor [2]; dose 320 g a.c./ha): 90%

Cc1nn(C)c(O)c1C(=O)c1ccc(C(F)(F)C(F)(F)F)c(S(C)(=O)=O)c1C [3-161]
Herbicidal action against SETVI (Setaria viridis): 100%
Herbicidal action against ALOMY (Alopecurus myosuroides): 90%
Herbicidal action against CYPES (Cyperus serotinus; dose 320 g a.c./ha): 80%

Cc1c(C(=O)c2cnn(C)c2O)ccc(C(F)(F)C(F)(F)F)c1S(C)(=O)=O [1-161]
Herbicidal action against MATIN (Matricaria inodora): 100%

Cc1nn(C)c(O)c1C(=O)c1ccc(C(F)(F)F)c(S(C)(=O)=O)c1C [3-17, known from WO 2008/125214]
Herbicidal action against SETVI (Setaria viridis): 60%
Herbicidal action against ALOMY (Alopecurus myosuroides): 50%
Herbicidal action against CYPES (Cyperus serotinus; dose 320 g a.c./ha): 50%
